Data on 28 compounds can be found in PubChem BioAssay AID1996.

Molecules are shown by their SMILES. Converted amounts (≈) assume the structure as drawn.

The conditions of this data set: buffer; pH 7.4; 200.0 µM.
Regarding `COc1ccccc1C(=O)Nc1cccc2c1CCCC2`, the solubility (kinetic) is < 0.6 µg/mL.
The result for `Cc1ccc(N2C(=O)C(Cl)=C(N3CCCCCC3)C2=O)cc1` reads 10.6 µg/mL (≈ 33.2 µM); that for `Cc1[nH]c2ccccc2c1C(C[N+](=O)[O-])c1ccco1` (stereo not drawn), 37.9 µg/mL (≈ 140 µM); that for `CN1C(=S)SC2CS(=O)(=O)CC21C` (stereo not drawn), > 35.6 µg/mL.
`CC(C)c1nc2sc3c(c2c(=O)[nH]1)CC(C)(C)OC3` showed a solubility (kinetic) of 6.4 µg/mL (≈ 23 µM).
The result for `Cn1c(=O)c2c(nc(Oc3ccccc3Cl)n2C)n(C)c1=O` reads 16 µg/mL (≈ 49.9 µM); that for `NC(=O)Cn1cc(C(=O)C(=O)N2CCOCC2)c2ccccc21`, > 47.3 µg/mL; that for `COC(=O)c1ccsc1NC(=O)c1ccco1`, 3.2 µg/mL (≈ 12.7 µM).
In turn, `FC(F)(F)c1ccc(CSc2ccccn2)cc1` yielded a solubility (kinetic) of 1.2 µg/mL (≈ 4.46 µM).
To `CC(=O)Nc1c(-c2ccccc2Cl)c(=O)c2ccccc2n1C` belongs > 49 µg/mL; to `COc1ccccc1CNC(=O)c1cc2ccccc2o1`, 10.1 µg/mL (≈ 35.9 µM); to `CCC(C(=O)OC)(C(=O)OC)c1ccc([N+](=O)[O-])cc1`, > 42.2 µg/mL.
The compound `O=C1CSC(c2cccnc2)N1Cc1ccc(Cl)cc1` (stereo not drawn) showed a solubility (kinetic) of 42.6 µg/mL (≈ 140 µM).
For `Cc1csc(SCC(=O)NC(C)c2ccccc2)n1` (stereo not drawn), the solubility (kinetic) was > 43.9 µg/mL.
As to `CCc1ccc(C(=O)CN2C(=O)NC3(CCc4ccccc43)C2=O)cc1` (stereo not drawn), the solubility (kinetic) was 6.5 µg/mL (≈ 18.7 µM).
Turning to `Cc1onc(-c2ccccc2)c1C(=O)N1CCN(c2ncccn2)CC1`, the solubility (kinetic) is > 52.4 µg/mL.
The compound `CCN(CC)S(=O)(=O)c1cccc(C(=O)NC2=NCCS2)c1` yielded a kinetic solubility of 34.8 µg/mL (≈ 102 µM).
`C#CC(C)(C)NC(=O)c1ccc(-c2ccccc2F)cc1`: the kinetic solubility is < 0.6 µg/mL.
Take `O=C(CNC(=O)Cc1ccccc1)NCc1cccs1`: the solubility (kinetic) was found to be 41.9 µg/mL (≈ 145 µM).
In the case of `O=c1[nH]c(=O)n([C@H]2C[C@H](O)[C@@H](CO)O2)cc1C(F)(F)F`, the solubility (kinetic) is > 44.4 µg/mL.
Take `CC1Cc2ccccc2N1C(=O)c1ccc2c(c1)OCO2` (stereo not drawn): the kinetic solubility was > 42.2 µg/mL.
In turn, `CCOc1ccccc1Oc1nc(-c2ccccc2O)nc2ccccc12` registered a kinetic solubility of 0.6 µg/mL (≈ 1.67 µM).
Turning to `Cc1ccc(NS(=O)(=O)c2cccc(C(=O)NC3CC3)c2)c(C)c1`, the solubility (kinetic) is 5.8 µg/mL (≈ 16.8 µM).
Regarding `COC(=O)c1ccc(NC(=O)c2ccc3c(c2)C(=O)N(C)C3=O)cc1`, the solubility (kinetic) is < 0.4 µg/mL.
Consider `Cc1cccc(NC(=O)CNC(=O)c2cccs2)n1`, for which the kinetic solubility is > 41.3 µg/mL.
`COc1cc(OC)cc(C(=O)N[C@H](C(=O)OCC(=O)Nc2ccc3c(c2)OCO3)C(C)C)c1` registered a solubility (kinetic) of 21.2 µg/mL (≈ 46.2 µM).
Take `S=C(c1ccc(-c2ccc(Br)cc2)o1)N1CCOCC1`: the solubility (kinetic) is < 0.8 µg/mL.
To `Cc1cc(C)cc(NC(=O)COC(=O)CC2CCCC2)c1` belongs 21.1 µg/mL (≈ 72.9 µM).
